Test results reported in article PMC6264464, “Synthesis and Antifungal Activity of Novel Sulfone Derivatives Containing 1,3,4-Oxadiazole Moieties” (Molecules, 2011).
≈ marks a conversion by molar mass, not a printed value. Read-outs that look alike come from different tables or passages of the source.

Legend:
C. mandshurica = experiment: Mycelial growth rate / poison plate antifungal test; type: cell-based, Cytospora mandshurica; conditions: Cytospora; for inhibition at 50 µg/mL: 120 h, read-out: Inhibition (%) C. mandshurica; for EC50: read-out: EC50 (µg/mL) C. mandshurica
F. oxysporum = experiment: Mycelial growth rate / poison plate antifungal test; type: cell-based; conditions: Fusarium oxysporum; for inhibition at 50 µg/mL: 120 h, read-out: Inhibition (%) F. oxysporum; for EC50: read-out: EC50 (µg/mL) F. oxysporum
T. cucumeris = experiment: microbe, parasite or virus in culture; type: cell-based; conditions: Thanatephorus cucumeris, read-out: EC50 (µg/mL) T. cucumeris
P. infestans = experiment: microbe, parasite or virus in culture; type: cell-based; conditions: Phytophthora infestans, read-out: EC50 (µg/mL) P. infestans
B. cinerea = experiment: microbe, parasite or virus in culture; type: cell-based; conditions: Botrytis cinerea, read-out: EC50 (µg/mL) B. cinerea
S. sclerotiorum = experiment: microbe, parasite or virus in culture; type: cell-based; conditions: Sclerotinia sclerotiorum, read-out: EC50 (µg/mL) S. sclerotiorum
C. gloeosporioides = experiment: microbe, parasite or virus in culture; type: cell-based; conditions: Colletotrichum gloeosporioides, read-out: EC50 (µg/mL) C. gloeosporioides
R. solani = experiment: microbe, parasite or virus in culture; type: cell-based; conditions: Rhizoctonia solani, read-out: EC50 (µg/mL) R. solani
[1] = at 50 µg/mL, PDA, 27 ± 1 °C, 5 days

SMILES | inhibition at 50 µg/mL (C. mandshurica; [1]) | melting point | inhibition at 50 µg/mL (F. oxysporum; [1]) | EC50 (C. mandshurica) | EC50 (T. cucumeris) | EC50 (P. infestans) | EC50 (B. cinerea) | EC50 (S. sclerotiorum) | EC50 (C. gloeosporioides) | EC50 (F. oxysporum) | EC50 (R. solani) | inhibition at 50 µg/mL (C. mandshurica) | inhibition at 50 µg/mL (F. oxysporum)
CS(=O)(=O)c1nnc(-c2ccccc2C(F)(F)F)o1 [Compound 5a, 2-(Methylsulfonyl)-5-(2-(trifluoromethyl)phenyl)-1,3,4-oxadiazole] | 68.3 ± 9.3% | 102 to 104 °C | 71.1 ± 7.7% |  |  |  |  |  |  |  |  |  | 
CS(=O)(=O)c1nnc(-c2ccc(F)c(F)c2F)o1 [Compound 5b, 2-(Methylsulfonyl)-5-(2,3,4-trifluorophenyl)-1,3,4-oxadiazole] | 89.7 ± 3.1% | 114 to 115 °C | 97.5 ± 3.3% |  |  |  |  |  |  |  |  |  | 
CS(=O)(=O)c1nnc(-c2ccncc2)o1 [Compound 5c, 2-(Methylsulfonyl)-5-(pyridin-4-yl)-1,3,4-oxadiazole] | 78.2 ± 4.7% | 134 to 136 °C | 72.6 ± 6.4% |  |  |  |  |  |  |  |  |  | 
CS(=O)(=O)c1nnc(-c2ccccc2F)o1 [Compound 5d, 2-(Methylsulfonyl)-5-(2-fluorophenyl)-1,3,4-oxadiazole] | 64 ± 1.3% | 97 to 99 °C | 70.1 ± 4.9% | 79.9 ± 14.8 µg/mL (≈ 330 µM) | 10 ± 5.64 µg/mL (≈ 41.3 µM) | 14.7 ± 3.23 µg/mL (≈ 60.8 µM) | 5.21 ± 2.05 µg/mL (≈ 21.5 µM) | 8.49 ± 3.51 µg/mL (≈ 35 µM) | 20.2 ± 6.65 µg/mL (≈ 83.5 µM) | 29.1 ± 7.82 µg/mL (≈ 120 µM) | 6.43 ± 1.34 µg/mL (≈ 26.5 µM) |  | 
CS(=O)(=O)c1nnc(-c2c(F)cccc2F)o1 [Compound 5e, 2-(Methylsulfonyl)-5-(2,6-difluorophenyl)-1,3,4-oxadiazole] | > 90% | 131 to 132 °C | 98.8 ± 8% | 38.3 ± 3.21 µg/mL (≈ 147 µM) | 23.4 ± 4.76 µg/mL (≈ 89.7 µM) | 59.5 ± 16.8 µg/mL (≈ 229 µM) | 8.25 ± 0.85 µg/mL (≈ 31.7 µM) | 15 ± 6.83 µg/mL (≈ 57.5 µM) | 26.1 ± 7.32 µg/mL (≈ 100 µM) | 65.8 ± 7.04 µg/mL (≈ 253 µM) | 21.2 ± 4.12 µg/mL (≈ 81.6 µM) |  | 
CS(=O)(=O)c1nnc(-c2c(Cl)cccc2Cl)o1 [Compound 5f, 2-(Methylsulfonyl)-5-(2,6-dichlorophenyl)-1,3,4-oxadiazole] | > 90% | 126 to 128 °C | 94 ± 4.1% | 98.2 ± 8.35 µg/mL (≈ 335 µM) | 25.2 ± 2.34 µg/mL (≈ 86.1 µM) | 42.9 ± 7.38 µg/mL (≈ 146 µM) | 8.03 ± 0.86 µg/mL (≈ 27.4 µM) | 17.2 ± 4.72 µg/mL (≈ 58.7 µM) | 33.1 ± 8.29 µg/mL (≈ 113 µM) | 85.4 ± 17.9 µg/mL (≈ 291 µM) | 16.2 ± 9.76 µg/mL (≈ 55.1 µM) |  | 
COc1ccccc1-c1nnc(S(C)(=O)=O)o1 [Compound 5g, 2-(Methylsulfonyl)-5-(2-methoxyphenyl)-1,3,4-oxadiazole] | > 90% | 127 to 129 °C | 89.6 ± 4.5% |  |  |  |  |  |  |  |  |  | 
Cc1ccccc1-c1nnc(S(C)(=O)=O)o1 [Compound 5h, 2-(Methylsulfonyl)-5-(2-methylphenyl)-1,3,4-oxadiazole] | > 90% | 117 to 119 °C | 74.6 ± 8.5% |  |  |  |  |  |  |  |  |  | 
CS(=O)(=O)c1nnc(-c2ccccc2Br)o1 [Compound 5i, 2-(Methylsulfonyl)-5-(2-bromophenyl)-1,3,4-oxadiazole] | 79.6 ± 7.1% | 134 to 135 °C | 77 ± 6.6% | 44.5 ± 3.56 µg/mL (≈ 147 µM) | 24.8 ± 4.29 µg/mL (≈ 81.7 µM) | 49.6 ± 9.39 µg/mL (≈ 164 µM) | 21 ± 2.01 µg/mL (≈ 69.3 µM) | 14.8 ± 1.02 µg/mL (≈ 48.8 µM) | 21.9 ± 2.93 µg/mL (≈ 72.4 µM) | 29.9 ± 1.31 µg/mL (≈ 98.6 µM) | 20 ± 1.28 µg/mL (≈ 66 µM) |  | 
CS(=O)(=O)c1nnc(-c2c(F)cccc2Cl)o1 [Compound 5j, 2-(Methylsulfonyl)-5-(2-chloro-6-fluorophenyl)-1,3,4-oxadiazole] | 64 ± 2.6% | 121 to 123 °C | 67.1 ± 4.8% |  |  |  |  |  |  |  |  |  | 
Cc1cc(O)no1 [Hymexazol, reference compound] |  |  |  | 39.3 ± 2.79 µg/mL (≈ 396 µM) | 32.2 ± 5.82 µg/mL (≈ 325 µM) | 26.5 ± 1.42 µg/mL (≈ 267 µM) | 25.2 ± 6.12 µg/mL (≈ 255 µM) | 7.76 ± 2.98 µg/mL (≈ 78.3 µM) | 37.6 ± 3.16 µg/mL (≈ 379 µM) | 27.9 ± 1.02 µg/mL (≈ 282 µM) | 38.6 ± 0.45 µg/mL (≈ 390 µM) | 57.3 ± 0.3% | 58.4 ± 0.8%
